From US6444644B1, “Anticoagulant peptide fragments derived from apolipoprotein B-100” (University College London, priority 1996, dated 2002)
No end group written: not given here.

Tests used:
[1] = molecular target: T1, thromboplastin (Homo sapiens, UniProt P13726); assay: Effect of KRAD-14 concentration on thromboplastin inhibition (one-stage prothrombin time assay); format: biochemical
T1 construct: purchased Gamidor Ltd. (Oxfordshire, U.K.)
Method: The synthetic KRAD-14 peptide was reconstituted in distilled water at 1 mM. Aliquots of recombinant thromboplastin were incubated, at 37° C. with a KRAD-14 at concentration range 10-5000 nM (final concentration) for 1 min prior to assaying using the one-stage prothrombin time assay. In addition, samples of thromboplastin (10 U/ml) were incubated with synthetic KRAD-14 at concentrations ranging from 1-100 μM (final concentration) prior to assaying using the one-stage prothrombin time assay.
Aliquots of recombinant thromboplastin were incubated, at 37° C. with a KRAD-14 at concentration range 10-5000 nM (final concentration) for 1 min prior to assaying using the one-stage prothrombin time assay. The percentage inhibition was calculated as 100×([…])/Initial activity. The experiment was performed in triplicate.
Samples of thromboplastin (10 U/ml) were incubated with synthetic KRAD-14 concentration ranging 1-100 μM (final concentration) prior to assaying using the one-stage prothrombin time assay. The percentage inhibition was calculated as 100×([…])/Initial activity. The experiment was performed in triplicate.
Aliquots (1 ml) of recombinant thromboplastin (100 nM) were incubated at 37° C. with a KRAD-14 peptide at concentration range 50 (♦), 100 (▾), 200 (▪), 300 (⋄) and 500 nM (□) (final concentration). 100 μl of the each sample was removed immediately and assayed for thromboplastin activity, by means of the one-stage prothrombin time assay. The rest of the samples were incubated at 37° C. and further 100 μl samples were removed at intervals up to 40 min and measured. The percentage inhibition was calculated as 100×(Initial activity-Residual activity)/Initial activity. The data were obtained from 3 separate experiments.

[2] = molecular target: factor Xa (Homo sapiens, UniProt P00742); assay: Influence on factor Xa activity (amidolytic and clotting in factor Xa-deficient plasma); format: biochemical
Chain of factor Xa (P00742 235-488 limits assumed): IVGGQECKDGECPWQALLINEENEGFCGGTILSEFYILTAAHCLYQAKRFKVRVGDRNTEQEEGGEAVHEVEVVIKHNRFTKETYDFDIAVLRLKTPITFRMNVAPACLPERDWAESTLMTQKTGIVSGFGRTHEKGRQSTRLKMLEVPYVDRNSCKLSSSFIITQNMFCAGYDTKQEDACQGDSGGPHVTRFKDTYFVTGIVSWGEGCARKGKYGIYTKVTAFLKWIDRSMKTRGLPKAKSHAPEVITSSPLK
Chain of factor Xa (P00742 41-179 limits assumed): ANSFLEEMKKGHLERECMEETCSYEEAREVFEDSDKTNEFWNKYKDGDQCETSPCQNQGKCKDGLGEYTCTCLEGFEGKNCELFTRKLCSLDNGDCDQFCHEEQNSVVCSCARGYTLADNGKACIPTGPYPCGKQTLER
Method: Samples (1 ml) of either KRAD-14 peptide (500 nM) or the control peptide 500 nM) were incubated with pre-activated factor Xa (100 nM) at 37° C. and the factor Xa activity measured at the beginning and at intervals up to 60 min as follows. The enzymatic activity of factor Xa was measured by the addition of 100 μl aliquots to 0.45 ml of thrombin substrate (N-benzoyl-ile-glu-gly-arg-p-nitroanilide) (0.26 mM) which was then incubated at 37° C. for exactly 10 min, before the addition of 0.45 ml of 20% (w/v) acetic acid. The absorption was measured at 405 nm against a factor Xa (100 nM) control assayed similarly. The procoagulant activity of factor Xa was measured by the addition of 100 μl of the sample to factor Xa-deficient plasma (100 μl) and […] CACl2 solution and measuring the clotting time. A factor Xa (100 nM) control was included in the assay against which comparisons were made.
Three 1 ml samples containing recombinant KRAD-14 peptide (20 (♦), 40 (▾) and 80 (▪) nM) were mixed with factor Xa (100 nM). […] The rest of the samples were incubated at 37° C. and further 100 μl samples were removed at intervals up to 40 min and measured as before. The activity was measured against a standard curve and the percentage inhibition calculated against the initial factor Xa activity. […]

[3] = tested on: platelets; assay: Activation of platelets by thrombin; format: cell-based
[4] = molecular target: thrombin (Homo sapiens, UniProt P00734); assay: Influence on thrombin activity (amidolytic and clotting); format: biochemical; conditions: 500 nM peptide, thrombin 100 nM
Method: Samples (1 ml) of either KRAD-14 peptide (500 nM) or each of the control peptides (500 nM) were incubated with thrombin (100 nM) at 37° C. and the thrombin activity measured at the beginning and at intervals up to 60 min as follows. The enzymatic activity of thrombin was measured by the addition of 100 μl aliquots to 0.45 ml of thrombin substrate (N-benzoyl-phe-val-arg-p-nitroanilide) (0.26 mM) which was then incubated at 37° C. for exactly 10 min, before the addition of 0.45 ml of 20% (w/v) acetic acid. The absorption was measured at 405 nm against a thrombin (100 nM) control assayed similarly. The procoagulant activity of thrombin was measured by the addition of 100 μl of the sample to control plasma (100 μl) and 25 mM CaCl2 solution and measuring the clotting time. A thrombin 100 nM) control was included in the assay against which comparisons were made.

[5] = molecular target: T1, thromboplastin; assay: Inhibition of thromboplastin in the presence of plasma; format: biochemical
Method: […] The samples were then assayed by addition of 100 μl of […] CaCl2 solution and measurement on the coagulometer. The percentage inhibition in each case calculated against a similarly treated sample, containing thromboplastin only.

[6] = molecular target: T1, thromboplastin; assay: Stability of the inhibitory effect of KRAD-14 following reconstitution; format: physicochemical
Method: However, KRAD-14 was effective at concentration as low as 50 nM. Moreover, the inhibition was unstable and completely disappeared after approximately 8 min following reconstitution. This deterioration was partially stabilised by adjusting the pH and addition of 5 nM bovine serum albumin as a stabiliser. However, the inhibitory effect deteriorated rapidly, completely disappearing after 15 min, following reconstitution.

T1 sequence (P13726 33-295): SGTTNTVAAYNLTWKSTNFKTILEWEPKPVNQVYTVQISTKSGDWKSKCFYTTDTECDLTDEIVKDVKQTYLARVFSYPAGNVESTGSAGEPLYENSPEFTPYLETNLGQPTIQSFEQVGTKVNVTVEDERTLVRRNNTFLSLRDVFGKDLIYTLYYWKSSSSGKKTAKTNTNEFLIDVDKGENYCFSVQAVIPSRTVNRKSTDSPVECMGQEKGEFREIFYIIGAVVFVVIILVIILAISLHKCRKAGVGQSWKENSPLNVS

KAQSKKNKHRHSTT [KRAD-14]
lowest concentration effective in inhibiting thromboplastin ([1]; 1 min preincubation at 37° C.): 50 nM | inhibition of thromboplastin compared with the recombinant peptide (in words) ([1]; synthetic peptide): inhibitory towards thromboplastin with similar effectiveness as the recombinant peptide | Kd ([1]; thromboplastin 100 nM, KRAD-14 peptide 1-5000 nM, 1 min at 37° C., read-out: Kdapp, inhibition of thromboplastin): 37 nM | effect on the amidolytic activity of factor Xa ([2]; 500 nM peptide): did not affect | Kd ([2]; factor Xa 100 nM, 37° C., factor Xa deficient plasma, read-out: Kdapp, inhibition of coagulation upon pre-incubation with factor Xa): 275 nM | effect on the activation of platelets by thrombin [3]: seems to affect the activation of platelets by thrombin | effect on the amidolytic proteolytic activity of thrombin [4]: did not affect | effect on the clotting ability of thrombin [4]: did not affect | influence of plasma on the ability to inhibit thromboplastin activity (in words) ([5]; plasma included during the incubation prior to assaying, peptide 500 nM): did not significantly affect | inhibition of thromboplastin activity in the presence of plasma ([5]; plasma present, 37° C., 2 min incubation): 74% | time after reconstitution at which the inhibition completely disappeared ([6]; no stabiliser): approximately 8 min | time after reconstitution at which the inhibitory effect completely disappeared ([6]; pH adjusted and 5 nM bovine serum albumin added as a stabiliser): 15 min
